Values quoted from earlier work in US7351715B2, “Unit dosage forms for the treatment of herpes simplex” (ChronoRx, LLC, priority 1998, dated 2008).

Tests used:
[1] = rabbits and rats
[2] = tested on: herpes simplex virus infections
HSV = conditions: topical application, guinea pigs
HSV-1 [3] = conditions: in vitro cell culture
HSV-1 [4] = conditions: in vitro, supplementation with exogenous GSH

SMILES: O=S(=O)([O-])[O-].[Zn+2] [Zinc sulfate]
- inactivation of free herpes simplex virus (herpes simplex virus): inactivates free herpes simplex virus

SMILES: O=c1[nH]c(=O)n([C@H]2C[C@H](O)[C@@H](CO)O2)cc1I [idoxuridine, 2′-Deoxy-5-idouridine]
- fetal malformations [1]: implicated in fetal malformations in rabbits and rats

SMILES: Cl.NCCCC[C@H](N)C(=O)O [L-lysine, L-lysine monohydrochloride]
- effect on rate of healing or appearance of lesions ([2]; at least one study): no effect on the rate of healing or the appearance of lesions
- reduction of occurrence, severity and healing time ([2]; oral, study involving 52 subjects): effective agent for the reduction of occurrence, severity and healing time
- herpes simplex patients with subjective improvement ([2]; patients using L-lysine, one study): 88%
- protection of skin from HSV inoculation (HSV): protected the skin from HSV inoculation

SMILES: O=c1c(O)c(-c2ccc(O)c(O)c2)oc2cc(O)cc(O)c12 [quercetin, 3,3′,4′,5,7-pentahydroxyflavone]
- intracellular viral replication (HSV-1 [3]): reduced intracellular viral replication
- reduction of infectivity of viruses including HSV-1 (HSV-1 [3]): concentration-dependent reduction of infectivity

SMILES: N[C@@H](CCC(=O)N[C@@H](CS)C(=O)NCC(=O)O)C(=O)O [GSH, Glutathione]
- inhibition of the replication of HSV-1 (HSV-1 [4]): over 99%
